Reference: US20100184814A1, “Ester Derivatives of Losartan, Methods for Their Preparation, and Uses Thereof” (priority 2009, published 2010)

What was measured:
[1] = background statement on Losartan; cited from earlier work
[2] = Pharmacokinetic study: plasma compound (II) (Losartan) after oral dosing of compounds of formula (I); format: in vivo; details: male Kumin mice, fasted, single oral gavage dose 5.8 mg/kg referenced to compound (II)
Description: Pharmacokinetic studies. The pharmacokinetics (PK) of compounds of formula (I) as well as Losartan were investigated in male Kumin mice. There were six mice per group and nine groups for this study. All mice were fasted overnight, following a single dose of 5.8 mg/kg referenced to the amount of metabolite, the compound of formula (2) from every compound of formula (1) studied. All mice were given dosing orally by gavage. The dosing vehicle used was propyleneglycol:water (1:1). The mice were fed 4 h post dose. Blood samples were collected at 0, 15, 30, 45 min, 1, 2, 4, 7, 10 and 15 h oral dosing. Approximately […] of blood was collected from the jugular vein in tubes containing EDTA, and plasma was obtained by centrifugation. Plasma samples were stored at −20° C. until analysis. Samples were analyzed for the compound of formula (II), (1-((2′-(2H-tetrazol-5-yl)biphenyl-4-yl)methyl)-2-butyl-4-chloro-1H-imidazol-5-yl)methanol, by LC/MS/MS.

[3] = compound (II) (Losartan) measured in plasma

Structure (SMILES) | bioavailability [1] | half-life [1] [h] | Bioavailability of compound (II) [2, 3] [%] | Half-time (T1/2) of compound (II) [2, 3] [h] | Cmax ([2]; compound (II) (Losartan) measured in plasma by LC/MS/MS, read-out: Maximum Blood Concentration (Cmax) of compound (II)) [nM]
CCCCc1nc(Cl)c(CO)n1Cc1ccc(-c2ccccc2-c2nn[nH]n2)cc1 [Losartan, (1-((2′-(2H-tetrazol-5-yl)biphenyl-4-yl)methyl)-2-butyl-4-chloro-1H-imidazol-5-yl)methanol] | 25-35% | 1 to 2 |  |  | 
CCCCc1nc(Cl)c(COC(=O)CN)n1Cc1ccc(-c2ccccc2-c2nn[nH]n2)cc1 [Compound (118), (S)-(1-((2′-(2H-tetrazol-5-yl)biphenyl-4-yl)methyl)-2-butyl-4-chloro-1H-imidazol-5-yl)methyl 2-aminoacetate] |  |  | 19 | 1.9 | 504
